Values quoted from earlier work in patent US20120088773A1, “Circadian rhythm modulation” (priority 2010, published 2012).
Values belong to the compound of their own block, whether it stands above or below them.

Tests used:
dopamine D(2) receptor = details: 200 mg oral caffeine compared to oral placebo
[1] = system: D2 dopamine-mediated rotational behavior; details: prior administration, dopamine-depleted rats
[2] = according to the CDC

water solubility: very water soluble
SMILES: CC(=O)N[C@@H](Cc1ccc(O)cc1)C(=O)O [N-acetyl-L-tyrosine]

ventral striatal [(11)C]raclopride binding potential (dopamine D(2) receptor): trend-level increase
decrease in midline thalamic binding potential (dopamine D(2) receptor; p<0.001): 12%
SMILES: Cn1c(=O)c2c(ncn2C)n(C)c1=O [caffeine]
D2 dopamine-mediated rotational behavior [1]: can sensitize D2 dopamine-mediated rotational behavior

SMILES: C=C1CC[C@H](O)C/C1=C/C=C1\CCC[C@]2(C)[C@@H]([C@H](C)CCCC(C)C)CC[C@@H]12 [vitamin D3, cholecalciferol]
half-life [2]: 24 to 48 h
